Results on 1 molecule are retold here after patent US10570099B2, “Salts of an epidermal growth factor receptor kinase inhibitor” (Celgene CAR LLC, priority 2012, dated 2020).

Series [1] can be described thus: Dynamic vapour sorption (DVS). The format is physicochemical. Here is the method:
For dynamic vapour sorption (DVS), approximately 10-20 mg of sample was placed into a wire mesh vapour sorption balance pan and loaded into a DVS-1 dynamic vapour sorption balance by Surface Measurement Systems. The sample was subjected to a ramping profile from 20-90% relative humidity (RH) at 10% increments, maintaining the sample at each step until a stable weight had been achieved (99.5% step completion). After completion of the sorption cycle, the sample was dried using the same procedure, but all the way down to 0% RH and finally taken back to the starting point of 20% RH. The weight change during the sorption/desorption cycles were plotted, allowing for the hygroscopic nature of the sample to be determined.

A short description of series [2]: Salt disproportionation study (slurry in deionized water). The following applies: deionized water slurry. It is filed as physicochemical. Here is the method:
The pH of the supernatant was also monitored.
The hydrobromide salt was slurried in deionised water at ambient temperature (ca. 22° C.). […] The pH of the supernatant was also monitored.

Series [3] can be described thus: Slurry in pH 6.2 aqueous medium (conversion to unknown solid form). As to conditions: slurry in aqueous pH 6.2 medium, ambient, XRPD. The format is physicochemical. The method, then:
In attempts to characterize this form, as well as establish the rate of conversion to this form while slurrying the material, the following experiments were carried out. Initially, approximately 100 mg of the hydrobromide (1 equiv.) material was slurried in a pH 6.2 aqueous solution at ambient and XRPD analysis was carried out at time points 5 min., 1 hr, 2 hrs, 4 hrs and 8 hrs. Further analysis was then also carried out on the converted material.

A short description of series [4]: Dog PK Study 1 (cross-over, fasted). The format is in vivo, beagle dogs. As to conditions: fasted dogs, oral, 24.5-28.5 mg/kg QD. Here is the method: Compound 1 free base and compound 2, as the Form I monohydrobromide (HBr) salt, were evaluated in a cross-over dog PK study. Compound 1 free base capsule consisted of compound 1 free base in Vitamin E TPGS and PEG 400 filled into a capsule. The Form I hydrobromide salt capsule consisted of Form I HBr alone filled into a capsule.
Compound 1 free base capsule and Form I HBr capsule were dosed orally at 28.5 and 24.5 mg/kg (as active) QD, respectively, to three fasted male non-naïve beagle dogs (body weight range: 10.1-10.8 kg) with a 5-day washout period. Approximately 5 mL of tap water was orally administered to encourage swallowing and ensure delivery of capsules into the stomach. Plasma samples were collected at pre-dose and 0.5, 1, 2, 4, 6, 8, 12 and 24 hours post dose. The plasma concentrations of compound 1 were determined by a liquid chromatography-tandem mass spectrometry (LC/MS/MS) method.

Series [5] in a line: Hygroscopicity judged from TGA / water retained after drying. It is filed as physicochemical. Here is the method: For thermogravimetric analysis (TGA), approximately 5-10 mg of material was accurately weighed into an open aluminium pan and loaded into a simultaneous thermogravimetric/differential thermal analyser (TG/DTA) and held at room temperature. The sample was then heated at a rate of 10° C./min from 25° C. to 300° C. during which time the change in sample weight was recorded along with any differential thermal events (DTA). Nitrogen was used as the purge gas, at a flow rate of 100 cm^3/min.

As for `Br.C=CC(=O)Nc1cccc(Nc2nc(Nc3ccc(N4CCN(C(C)=O)CC4)cc3OC)ncc2C(F)(F)F)c1` [Form I hydrobromide salt], the “post DVS XRPD analysis (polymorphic form)” value in series [1] (after DVS cycles, listed as hydrobromide salt) is “remain consistent”. The “water uptake (DVS)” value in series [1] (between 20 and 70% RH) was 0.97%. The “pH of the supernatant” value in series [2] (1 hr), in series [2] (24 hrs) and in series [2] (48 hrs) was “pH 1” throughout. Besides, in series [3], the “time of conversion to the unknown solid form” value lay in the range of 2 to 4 h. Also, the “compound 1 exposure (AUC and Cmax) compared to the free base form” value in series [4] was “significantly higher”. The “hygroscopicity (TGA, water retained at ambient conditions)” value in series [5] is listed as “slightly hygroscopic”.
